# Literature values as cited in US20240189234A1, “SILICON PARTICLES FOR DRUG DELIVERY” (NACAMED AS, priority 2021, published 2024).
# Details: calculated log P values from Foye's Principles of Medicinal Chemistry
row,Compound,log P
1,CN(C)CCC=C1c2ccccc2CCc2ccccc21 [amitriptyline],4.41
2,C=CCN1CC[C@]23CCCC[C@H]2[C@H]1Cc1ccc(O)cc13 [levallorphan],3.85
3,CN(C)C/C=C(/c1ccc(Br)cc1)c1cccnc1 [zimeldine],3.07
4,CN1CCN(CCCN2c3ccccc3Sc3ccc(C(F)(F)F)cc32)CC1 [trifluoperazine],4.62
5,CC(CN(C)C)CN1c2ccccc2CCc2ccccc21 (centres unmarked) [trimipramine],4.71
6,C[C@]12CC[C@@H]3c4ccc(O)cc4CC[C@H]3[C@@H]1CCC2=O [estrone],3.62
7,CCCCCCC(=O)OCCN1CCN(CCCN2c3ccccc3Sc3ccc(C(F)(F)F)cc32)CC1 [fluphenazine enanthate],7.29
8,CC(C)[C@@]1(NC(=O)[C@@H]2C[C@@H]3c4cccc5[nH]cc(c45)C[C@H]3N(C)C2)O[C@@]2(O)[C@@H]3CCCN3C(=O)[C@H](Cc3ccccc3)N2C1=O [dihydroergocristine],6.55
9,Cc1ccccc1N1C(=O)c2cc(S(N)(=O)=O)c(Cl)cc2NC1C (centres unmarked) [metolazone],3.16
10,CCC(Cc1c(I)cc(I)c(N)c1I)C(=O)O (centres unmarked) [iopanoic acid],4.65
11,C=C[C@H]1C[N@@]2CC[C@H]1C[C@@H]2[C@@H](O)c1ccnc2ccccc12 [cinchonine],3.69
12,Cc1ccc(O)c([C@H](CCN(C(C)C)C(C)C)c2ccccc2)c1 [tolterodine],5.23
13,CNCCC(Oc1ccc(C(F)(F)F)cc1)c1ccccc1 (centres unmarked) [fluoxetine],3.93
14,Cc1ccc(/C(=C\CN2CCCC2)c2ccccn2)cc1 [triprolidine],3.25
15,O=c1[nH]c2ccccc2n1C1CCN(CCCC(c2ccc(F)cc2)c2ccc(F)cc2)CC1 [pimozide],5.57
16,CN[C@H]1CC[C@@H](c2ccc(Cl)c(Cl)c2)c2ccccc21 [sertraline],5.08
17,CN1CCC(=C2c3ccccc3C=Cc3ccccc32)CC1 [cyproheptadine],4.92
18,O=C(CCCN1CCC(O)(c2ccc(Cl)cc2)CC1)c1ccc(F)cc1 [haloperidol],3.76
19,CN1CCC2=C(C1)C(c1ccccc1)c1ccccc12 (centres unmarked) [phenindamine],3.81
20,CN(C)CCCN1c2ccccc2Sc2ccc(C(F)(F)F)cc21 [triflupromazine],5.16
21,CC(=O)N(CC(C)C(=O)O)c1c(I)cc(I)c(N)c1I (centres unmarked) [iocetamic acid],4.57

row,Compound,log P
1,O=C(Nc1ccccc1)OCC(CN1CCCCC1)OC(=O)Nc1ccccc1 (centres unmarked) [diperodon],4.65
2,C1CCC(C(CC2CCCCN2)C2CCCCC2)CC1 (centres unmarked) [perhexilene],6.46
3,CNCCC=C1c2ccccc2CCc2ccccc21 [nortriptyline],3.97
4,Clc1ccc(COC(Cn2ccnc2)c2ccc(Cl)cc2Cl)c(Cl)c1 (centres unmarked) [miconazole],4.97
5,CCCCc1cc2ccccc2c(OCCN(C)C)n1 [dimethisoquin],4.04
6,c1ccc2c(c1)Sc1ccccc1N2CCN1CCCC1 [pyrathiazine],4.15
7,CC[C@]1(O)C[C@@H]2CN(CCc3c([nH]c4ccccc34)[C@@](C(=O)OC)(c3cc4c(cc3OC)N(C)[C@H]3[C@@](O)(C(N)=O)[C@H](O)[C@]5(CC)C=CCN6CC[C@]43[C@@H]65)C2)C1 [vindesine],4.94
8,CN(C)CCOc1ccccc1Cc1ccccc1 [phenyltoloxamine],3.46
9,CN(C)CCC=C1c2ccccc2C=Cc2ccccc21 [cyclobenzaprine],6.19
10,COc1ccccc1Oc1c(NS(=O)(=O)c2ccc(C(C)(C)C)cc2)nc(-c2ncccn2)nc1OCCO [bosentan],4.36
11,CCCCN(CCCC)CCCOC(=O)c1ccc(N)cc1 [butacaine],4.62
12,O=C(Oc1ccccc1C(=O)O)c1ccccc1O [salsalate],3.29
13,CC(CN1c2ccccc2Sc2ccccc21)N(C)C (centres unmarked) [promethazine],4.89
14,CC(=O)O[C@H]1C[C@@]2(C)[C@@H](C[C@@H](O)[C@H]3[C@@]4(C)CC[C@@H](O)[C@@H](C)[C@@H]4CC[C@@]32C)/C1=C(\CCC=C(C)C)C(=O)O [fusidic acid],5.76
15,c1ccc(CN(CC2=NCCN2)c2ccccc2)cc1 [antazoline],3.58
16,Cc1onc(-c2c(Cl)cccc2Cl)c1C(=O)N[C@@H]1C(=O)N2[C@@H]1SC(C)(C)[C@@H]2C(=O)O [dicloxacillin],3.10
17,CC(COc1ccccc1)N(CCCl)Cc1ccccc1 (centres unmarked) [phenoxybenzamine],3.69
18,CCN(CC)CCN1c2ccccc2Sc2ccccc21 [diethazine],5.55
19,CC(C(=O)O)c1ccc(-c2ccccc2)c(F)c1 (centres unmarked) [flurbiprofen],3.66
20,NCCCC[C@H](N[C@@H](CCc1ccccc1)C(=O)O)C(=O)N1CCC[C@H]1C(=O)O [Lisinopril],3.47
21,O=C(CCCN1CC=C(n2c(=O)[nH]c3ccccc32)CC1)c1ccc(F)cc1 [droperidol],3.10

row,Compound,log P
1,CCN(CC)CCNc1ccc(CO)c2sc3ccccc3c(=O)c12 [hycanthone],3.81
2,CC(=O)CC(c1ccccc1)c1c(O)c2ccccc2oc1=O (centres unmarked) [warfarin],3.13
3,CN(C)CCOC(c1ccccc1)c1ccc(Br)cc1 (centres unmarked) [bromodiphenhydramine],4.03
4,O=C(O)Cc1ccccc1Oc1ccc(Cl)cc1Cl [fenclofenac],4.59
5,N[C@@H](Cc1cc(I)c(Oc2ccc(O)c(I)c2)c(I)c1)C(=O)O [liothyronine],3.91
6,COc1ccc(-c2nc(C(F)(F)F)[nH]c2-c2ccc(OC)cc2)cc1 [flumizole],4.26
7,CC(=O)Oc1cc2c(s1)CCN(C(C(=O)C1CC1)c1ccccc1F)C2 (centres unmarked) [prasugel],4.31
8,CCN(CC)CCCC(C)Nc1c2ccc(Cl)cc2nc2ccc(OC)cc12 (centres unmarked) [quinacrine],5.59
9,CCN(CC)CCCC(C)Nc1cc(OC)cc2cccnc12 (centres unmarked) [pamaquine],4.38
10,CC(C(=O)O)c1cccc(Oc2ccccc2)c1 (centres unmarked) [fenoprofen],3.72
11,Cc1ccc(N(CC2=NCCN2)c2cccc(O)c2)cc1 [phentolamine],4.08
12,O=C(O)c1cc(/N=N/c2ccc(S(=O)(=O)Nc3ccccn3)cc2)ccc1O [sulfasalazine],3.05
13,CN1C[C@H](C(=O)N[C@]2(C)O[C@@]3(O)[C@@H]4CCCN4C(=O)[C@H](Cc4ccccc4)N3C2=O)C[C@@H]2c3cccc4[nH]cc(c34)C[C@H]21 [dihydroergotamine],5.69
14,Cc1ccc(Cl)c(Nc2ccccc2C(=O)O)c1Cl [meclofenamic acid],5.44
15,CN1C[C@H](C(=O)N[C@]2(C)O[C@@]3(O)[C@@H]4CCCN4C(=O)[C@H](Cc4ccccc4)N3C2=O)C=C2c3cccc4[nH]cc(c34)C[C@H]21 [ergotamine],7.37
16,O=C(CCCN1CCC2(CC1)C(=O)NCN2c1ccccc1)c1ccc(F)cc1 [spiperone],3.25
17,CC(=O)OCCN1CCN(CCCN2c3ccccc3Sc3ccc(Cl)cc32)CC1 [thiopropazate],4.76
18,CO[C@H]1C[C@H](O[C@H]2[C@H](C)[C@@H](O[C@@H]3O[C@H](C)C[C@H](N(C)C)[C@H]3OC(C)=O)[C@@H](C)C[C@@]3(CO3)C(=O)[C@H](C)[C@@H](OC(C)=O)[C@@H](C)[C@@H](C)OC(=O)[C@@H]2C)O[C@@H](C)[C@@H]1OC(C)=O [troleandomycin],3.46
19,O=C1CN=C(c2ccccc2)c2cc(Cl)ccc2N1CC1CC1 [prazepam],3.70
20,CC(C)C(=O)Oc1ccc(CO)cc1[C@H](CCN(C(C)C)C(C)C)c1ccccc1 [fesoterodine],5.08
21,c1ccc(C2(N3CCCCC3)CCCCC2)cc1 [phencyclidine],4.25

row,Compound,log P
1,COC(=O)[C@H]1[C@H]2C[C@@H]3c4[nH]c5cc(OC)ccc5c4CCN3C[C@H]2C[C@@H](OC(=O)c2cc(OC)c(OC)c(OC)c2)[C@@H]1OC [reserpine],3.65
2,CCCCCCC(C)(C)c1cc(O)c2c(c1)OC(C)(C)C1CCC(=O)CC21 (centres unmarked) [nabilone],7.25
3,O=C1c2ccccc2C(=O)C1c1ccccc1 [phenindione],3.19
4,Oc1ccc2c(c1)[C@@]13CCCC[C@@]1(O)[C@@H](C2)N(CC1CCC1)CC3 [butorphanol],3.54
5,Cc1c(O)cccc1C(=O)N[C@@H](CSc1ccccc1)[C@H](O)CN1C[C@H]2CCCC[C@H]2C[C@H]1C(=O)NC(C)(C)C [nelfinavir],7.28
6,N#CC(CCN1CCC(C(=O)O)(c2ccccc2)CC1)(c1ccccc1)c1ccccc1 [diphenoxin],3.97
7,O=C(CCCCC(=O)Nc1c(I)cc(I)c(C(=O)O)c1I)Nc1c(I)cc(I)c(C(=O)O)c1I [iodipamide],5.10
8,Cc1cccc(Nc2ccccc2C(=O)O)c1C [mefenamic acid],4.83
9,CC(C)=CCN1CCC2(C)c3cc(O)ccc3CC1C2C (centres unmarked) [pentazocine],4.15
10,CN1CCN(CCCN2c3ccccc3Sc3ccc(Cl)cc32)CC1 [prochlorperazine],4.65
11,O=C(O)c1ccccc1Nc1cccc(C(F)(F)F)c1 [flufenamic acid],5.22
12,CC1(C)[C@@H](OC(=O)CCC(=O)O)CC[C@]2(C)[C@H]3C(=O)C=C4[C@@H]5C[C@@](C)(C(=O)O)CC[C@]5(C)CC[C@@]4(C)[C@]3(C)CC[C@@H]12 [carbenoxolone],6.63
13,CC[C@H]1CN2CCc3cc(OC)c(OC)cc3[C@@H]2C[C@@H]1C[C@H]1NCCc2cc(OC)c(OC)cc21 [Emetine],3.82
14,CCCCc1nc(Cl)c(CO)n1Cc1ccc(-c2ccccc2-c2nn[nH]n2)cc1 [losartan],3.46
15,OCCN1CCN(CC/C=C2/c3ccccc3Sc3ccc(C(F)(F)F)cc32)CC1 [flupenthixol],3.67
16,CN1CCCC(CN2c3ccccc3Sc3ccccc32)C1 (centres unmarked) [mepazine],5.04
17,CCCN1C[C@H](CSC)C[C@@H]2c3cccc4[nH]cc(c34)C[C@H]21 [pergolide],3.90
18,CSc1ccc2c(c1)N(CCC1CCCCN1C)c1ccccc1S2 (centres unmarked) [thioridazine],5.90
19,OC(c1ccccc1)(c1ccccc1)C1CCCCN1 (centres unmarked) [pipradrol],3.61
20,CC(C)(C)NC(=O)[C@H]1CC[C@H]2[C@@H]3CC[C@H]4NC(=O)C=C[C@]4(C)[C@H]3CC[C@]12C [finasteride],3.83
